Laboratory results reported in PubChem BioAssay (NCI).
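Five concentrations, 48 hours, 96-well plates. GI50 = concentration required for 50% inhibition of growth. TGI marks complete inhibition of growth.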

Experiments:
Test in all cases: DTP human tumour cell line panel, 48 h
[1] = system: OVCAR-8 ovarian
[2] = system: 786-0 renal
[3] = system: COLO 205 colon
[4] = system: HCT-116 colon
[5] = system: RXF 393 renal
[6] = system: NCI/ADR-RES ovarian
[7] = system: SNB-75 CNS
[8] = system: MDA-N
[9] = system: PC-3 prostate
[10] = system: MDA-MB-435

Compound | TGI [1] | TGI [2] | TGI [3] | TGI [4] | TGI [5] | TGI [6] | TGI [7] | TGI [8] | TGI [9] | TGI [10] | GI50 [7] | GI50 [3] | GI50 [9] | GI50 [5]
O=CC1=CCC2c3[nH]c4ccccc4c3CCN2C1 (stereo not given) | > 396 µM | > 396 µM | > 396 µM | 126 µM | > 396 µM |  |  |  |  |  |  |  |  | 
c1cc2c(cc1[C@@H]1OC[C@@H]3[C@H]1CO[C@H]3c1ccc3c(c1)OCO3)OCO2 | > 100 µM | > 100 µM | > 100 µM | > 100 µM | 89.3 µM | > 100 µM | > 100 µM | > 100 µM | > 100 µM | > 100 µM |  |  |  | 
COc1ccc(CC[N+]2(C)COc3cc4oc(=O)cc(C)c4cc3C2)cc1OC (stereo not given) | > 100 µM | > 100 µM | > 100 µM | > 100 µM | > 100 µM | > 100 µM | > 100 µM | > 100 µM | > 100 µM | > 100 µM |  |  |  | 
C(=C\c1c2oc(-c3ccccc3)cc(-c3ccccc3)c-2c2ccccc12)/C=C1\c2ccccc2-c2c(-c3ccccc3)cc(-c3ccccc3)[o+]c21 | > 100 µM | > 100 µM | > 100 µM | > 100 µM | > 100 µM |  | > 100 µM |  |  |  |  |  |  | 
CC(C)[C@@H]1NC(=O)[C@@H]2N=C(O[C@H]2C)[C@H](C(C)C)NC(=O)C2N=C1O[C@H]2C | > 100 µM | > 100 µM | > 100 µM | > 100 µM | > 100 µM | > 100 µM | > 100 µM | > 100 µM | > 100 µM | > 100 µM |  |  |  | 
CC(=O)O[C@H]1C(=O)[C@@]2(C)[C@H]([C@H](OC(=O)c3ccco3)[C@]3(O)C[C@H](OC(=O)[C@H](O)[C@@H](NC(=O)c4ccccc4)c4ccccc4)C(C)=C1C3(C)C)[C@]1(OC(C)=O)CO[C@@H]1C[C@@H]2O | > 17.2 µM | > 25 µM | > 5.82 µM |  | 3.76 µM | > 25 µM | 3.87 µM | 0.0602 µM | > 23.5 µM | 0.0591 µM |  |  |  | 
CCOC(=O)c1cn(CC)c2ccc3c(c2c1=O)S(=O)(=O)C=C3 | > 100 µM | > 100 µM | > 100 µM | > 100 µM | > 100 µM | > 100 µM | > 100 µM | > 100 µM | > 100 µM | > 100 µM |  |  |  | 
O=C(O)/C=C/c1ccncc1 | > 100 µM | > 100 µM | > 100 µM | > 100 µM | > 100 µM |  | > 100 µM |  |  |  |  |  |  | 
COC(=O)C(NC(=O)c1ccccc1)C(c1c(O)cc(O)cc1O)P(=O)(OC)OC (stereo not given) | > 100 µM |  | > 100 µM | > 100 µM |  |  | > 100 µM |  |  |  |  |  |  | 
CCOC(=O)c1csc(NC(=O)C(C)N2CCOCC2)n1 (stereo not given) | > 100 µM |  | > 100 µM |  | > 100 µM | > 100 µM | > 100 µM | > 100 µM | > 100 µM | > 100 µM |  |  |  | 
N#CC(NNC(=O)c1ccccc1O)c1c(O)ccc2ccccc12 (stereo not given) | 25.9 µM | 58.8 µM | 23.6 µM | 14.8 µM | 29.9 µM | 19.3 µM | 48.3 µM | > 63.2 µM | > 55.1 µM | 43.4 µM |  |  |  | 
CCOC(=O)C1C(c2ccc(OC)cc2)c2c([nH]n(-c3ccccc3)c2=O)CC1(C)O (stereo not given) | > 100 µM | > 100 µM | 50.4 µM | > 100 µM |  | > 100 µM | > 100 µM | > 100 µM | > 100 µM | > 100 µM |  |  |  | 
C=CCNC1=C2C[C@@H](C)C[C@@H](OC)[C@H](OC(=O)CCN(C)C)[C@H](C)/C=C(\C)[C@@H](OC(N)=O)[C@H](OC)/C=C\C=C(/C)C(=O)NC(=CC1=O)C2=O | 48 µM | 21.2 µM | 1.23 µM | 16.5 µM | 11.7 µM | > 80.3 µM | 0.741 µM | 14.3 µM | 14.3 µM | 13.2 µM |  |  |  | 
Cc1ccc(-n2cc(-c3ccc(Cl)cc3)c3c(=N)n(N)cnc32)cc1 | 29.9 µM | 24.4 µM | 20.7 µM | 20.3 µM | 15.7 µM | 26.8 µM | 25.9 µM | 23.8 µM | 19.4 µM | 23.1 µM |  |  |  | 
Cn1c(NC(=O)NC23CC4CC(CC(C4)C2)C3)nc2ccccc21 | > 100 µM | 81.5 µM | > 100 µM | > 100 µM | 57.4 µM |  | 21.1 µM |  |  |  |  |  |  | 
NC(Cc1ccccc1CP(=O)(O)O)C(=O)O (stereo not given) | > 100 µM |  | > 100 µM | > 100 µM | > 100 µM | > 100 µM | > 100 µM | > 100 µM | > 100 µM | > 100 µM |  |  |  | 
S=c1[nH]nc(CCCCCCCCc2n[nH]c(=S)o2)o1 | > 100 µM | > 100 µM | > 100 µM | > 100 µM | > 100 µM | > 100 µM | > 100 µM | > 100 µM | > 100 µM | > 100 µM |  |  |  | 
CC[C@]1(Cc2ccc(OC)c(OC)c2)C=[N+]([O-])O[C@H](OC2CCCC2(c2ccccc2)c2ccccc2)[C@@H]1OC(=O)C(C)(C)C (stereo not given in full) |  | 5.31 µM | 7.78 µM | 4.58 µM | 3.53 µM | 5.58 µM | 13.4 µM |  | 14.8 µM | 4.12 µM |  |  |  | 
COC1OC(C(=O)O)C2OC(C)(C)OC12 (stereo not given) | > 100 µM | > 100 µM | > 100 µM | > 100 µM | > 100 µM | > 100 µM | > 100 µM | > 100 µM | > 100 µM | > 100 µM |  |  |  | 
Cc1cc2c(cc1Cl)Sc1n[nH]c(=O)n1S2(=O)=O | > 100 µM | > 100 µM | > 100 µM | > 100 µM |  | > 100 µM | > 100 µM | > 100 µM | > 100 µM | > 100 µM |  |  |  | 
Cc1ccccc1Nc1nc2ccccc2nc1NS(=O)(=O)c1ccccc1 | > 100 µM | > 100 µM | > 100 µM | > 100 µM | > 100 µM | > 100 µM | > 100 µM |  | > 100 µM | > 100 µM |  |  |  | 
Cc1cc(Nc2ccc(Cl)cc2)nc(NCCCNc2ccnc3cc(Cl)ccc23)n1 |  |  | 3.31 µM |  | 3.08 µM |  | 2.6 µM |  | 3.18 µM |  | 1.33 µM | 1.66 µM | 1.65 µM | 1.52 µM
Cc1ncc(CSC(=N)N)n1Cc1ccccc1 | > 100 µM | > 100 µM | > 100 µM | > 100 µM | > 100 µM | > 100 µM |  | > 100 µM | > 100 µM | > 100 µM |  |  |  | 
